# In patent publication US11981658B2, “Substituted aminopyridine compounds as EGFR inhibitors” (YUHAN CORPORATION, priority 2021, dated 2024):
# Where two headings read alike, the source gives them in different places.
# What was measured:
# [1] = biological target: EGFR Del19/T790M/C797S (Homo sapiens, UniProt P00533, C797S/DEL746-750/T790M); assay: Biochemical EGFR kinase inhibition assay (Lance Ultra TR-FRET), triple mutant del19/T790M/C797S
# Method in brief: (§1)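 Kinase activity is measured by TR-FRET phosphopeptide detection. Compounds span 0.003 μM to 10 μM; the 1 h reaction at room temperature is quenched with EDTA, then labelled antibody (2 nM) is incubated 60 min before reading.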
# [2] = biological target: EGFR L858R/T790M/C797S (Homo sapiens, UniProt P00533, C797S/L858R/T790M); assay: Biochemical EGFR kinase inhibition assay (Lance Ultra TR-FRET), triple mutant L858R/T790M/C797S
# EGFR L858R/T790M/C797S, sequence (P00533 25-1210 T790M/C797S/L858R): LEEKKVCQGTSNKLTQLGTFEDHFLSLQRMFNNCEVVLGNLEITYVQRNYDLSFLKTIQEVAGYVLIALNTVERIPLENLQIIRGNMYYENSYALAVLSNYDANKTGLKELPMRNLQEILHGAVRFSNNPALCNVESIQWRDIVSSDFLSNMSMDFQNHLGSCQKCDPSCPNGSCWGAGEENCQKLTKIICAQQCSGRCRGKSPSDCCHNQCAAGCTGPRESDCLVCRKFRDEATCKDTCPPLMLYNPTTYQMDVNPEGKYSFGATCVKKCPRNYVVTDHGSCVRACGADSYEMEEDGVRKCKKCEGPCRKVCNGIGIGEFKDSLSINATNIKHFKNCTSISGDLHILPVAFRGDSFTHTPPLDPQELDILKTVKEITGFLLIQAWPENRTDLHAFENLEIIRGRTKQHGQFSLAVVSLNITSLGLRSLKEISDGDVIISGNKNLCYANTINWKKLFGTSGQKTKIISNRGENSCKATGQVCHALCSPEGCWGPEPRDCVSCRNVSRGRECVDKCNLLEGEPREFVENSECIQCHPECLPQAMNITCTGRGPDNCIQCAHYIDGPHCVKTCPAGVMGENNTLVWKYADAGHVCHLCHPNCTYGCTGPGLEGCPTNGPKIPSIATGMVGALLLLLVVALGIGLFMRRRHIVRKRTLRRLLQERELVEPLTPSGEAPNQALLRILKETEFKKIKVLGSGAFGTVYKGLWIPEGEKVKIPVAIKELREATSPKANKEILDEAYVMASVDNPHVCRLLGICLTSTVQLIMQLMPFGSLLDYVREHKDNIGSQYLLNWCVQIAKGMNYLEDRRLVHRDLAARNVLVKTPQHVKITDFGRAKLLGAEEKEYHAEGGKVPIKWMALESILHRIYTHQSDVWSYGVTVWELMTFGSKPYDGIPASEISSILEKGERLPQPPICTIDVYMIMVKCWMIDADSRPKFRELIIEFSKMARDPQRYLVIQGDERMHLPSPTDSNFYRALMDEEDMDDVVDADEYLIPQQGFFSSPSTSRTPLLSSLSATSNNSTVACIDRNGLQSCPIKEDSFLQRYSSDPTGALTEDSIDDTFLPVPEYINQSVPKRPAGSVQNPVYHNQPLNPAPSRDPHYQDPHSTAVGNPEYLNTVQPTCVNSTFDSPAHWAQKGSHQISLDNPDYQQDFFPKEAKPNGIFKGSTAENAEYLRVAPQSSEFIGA
# Method in brief: as §1
# [3] = biological target: EGFR Del19/C797S (Homo sapiens, UniProt P00533, C797S/DEL746-750); assay: Biochemical EGFR kinase inhibition assay (Lance Ultra TR-FRET), double mutant del19/C797S
# EGFR Del19/C797S, sequence (P00533 with tags, fused parts or gaps DEL746-750/C797S): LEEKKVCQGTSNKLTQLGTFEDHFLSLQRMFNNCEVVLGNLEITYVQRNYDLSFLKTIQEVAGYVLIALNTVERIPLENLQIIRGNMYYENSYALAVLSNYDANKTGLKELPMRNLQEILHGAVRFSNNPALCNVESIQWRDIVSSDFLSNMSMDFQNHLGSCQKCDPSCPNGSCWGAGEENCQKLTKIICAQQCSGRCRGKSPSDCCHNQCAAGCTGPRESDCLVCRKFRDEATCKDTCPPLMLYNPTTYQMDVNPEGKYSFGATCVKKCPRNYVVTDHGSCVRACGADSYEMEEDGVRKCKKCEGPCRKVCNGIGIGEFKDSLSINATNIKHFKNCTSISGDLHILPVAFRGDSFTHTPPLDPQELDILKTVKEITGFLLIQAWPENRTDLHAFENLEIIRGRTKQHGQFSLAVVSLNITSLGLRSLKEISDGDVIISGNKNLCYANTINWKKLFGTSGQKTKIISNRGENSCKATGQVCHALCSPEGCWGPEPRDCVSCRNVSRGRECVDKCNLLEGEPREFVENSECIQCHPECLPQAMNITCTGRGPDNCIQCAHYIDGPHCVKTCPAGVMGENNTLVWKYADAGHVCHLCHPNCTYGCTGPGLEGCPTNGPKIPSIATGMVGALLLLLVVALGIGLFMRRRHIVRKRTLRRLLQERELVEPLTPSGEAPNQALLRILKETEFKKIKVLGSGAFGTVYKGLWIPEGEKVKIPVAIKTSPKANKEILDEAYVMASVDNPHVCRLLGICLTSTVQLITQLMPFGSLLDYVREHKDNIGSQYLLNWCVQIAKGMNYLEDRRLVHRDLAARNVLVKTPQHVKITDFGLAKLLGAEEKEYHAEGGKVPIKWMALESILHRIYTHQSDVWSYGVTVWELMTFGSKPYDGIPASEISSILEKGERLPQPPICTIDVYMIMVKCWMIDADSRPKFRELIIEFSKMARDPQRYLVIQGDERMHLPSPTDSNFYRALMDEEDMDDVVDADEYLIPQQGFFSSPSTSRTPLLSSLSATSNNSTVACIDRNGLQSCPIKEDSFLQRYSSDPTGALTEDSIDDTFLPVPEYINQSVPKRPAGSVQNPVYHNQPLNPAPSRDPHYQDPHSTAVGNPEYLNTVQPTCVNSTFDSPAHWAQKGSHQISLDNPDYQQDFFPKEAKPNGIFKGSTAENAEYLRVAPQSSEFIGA
# Method in brief: as §1
# [4] = biological target: EGFR L858R/C797S (Homo sapiens, UniProt P00533, C797S/L858R); assay: Biochemical EGFR kinase inhibition assay (Lance Ultra TR-FRET), double mutant L858R/C797S
# Method in brief: as §1
# [5] = biological target: EGFR wildtype (WT) (Homo sapiens, UniProt P00533); assay: Biochemical EGFR kinase inhibition assay (Lance Ultra TR-FRET), wildtype
# EGFR wildtype (WT), sequence (P00533 25-1210): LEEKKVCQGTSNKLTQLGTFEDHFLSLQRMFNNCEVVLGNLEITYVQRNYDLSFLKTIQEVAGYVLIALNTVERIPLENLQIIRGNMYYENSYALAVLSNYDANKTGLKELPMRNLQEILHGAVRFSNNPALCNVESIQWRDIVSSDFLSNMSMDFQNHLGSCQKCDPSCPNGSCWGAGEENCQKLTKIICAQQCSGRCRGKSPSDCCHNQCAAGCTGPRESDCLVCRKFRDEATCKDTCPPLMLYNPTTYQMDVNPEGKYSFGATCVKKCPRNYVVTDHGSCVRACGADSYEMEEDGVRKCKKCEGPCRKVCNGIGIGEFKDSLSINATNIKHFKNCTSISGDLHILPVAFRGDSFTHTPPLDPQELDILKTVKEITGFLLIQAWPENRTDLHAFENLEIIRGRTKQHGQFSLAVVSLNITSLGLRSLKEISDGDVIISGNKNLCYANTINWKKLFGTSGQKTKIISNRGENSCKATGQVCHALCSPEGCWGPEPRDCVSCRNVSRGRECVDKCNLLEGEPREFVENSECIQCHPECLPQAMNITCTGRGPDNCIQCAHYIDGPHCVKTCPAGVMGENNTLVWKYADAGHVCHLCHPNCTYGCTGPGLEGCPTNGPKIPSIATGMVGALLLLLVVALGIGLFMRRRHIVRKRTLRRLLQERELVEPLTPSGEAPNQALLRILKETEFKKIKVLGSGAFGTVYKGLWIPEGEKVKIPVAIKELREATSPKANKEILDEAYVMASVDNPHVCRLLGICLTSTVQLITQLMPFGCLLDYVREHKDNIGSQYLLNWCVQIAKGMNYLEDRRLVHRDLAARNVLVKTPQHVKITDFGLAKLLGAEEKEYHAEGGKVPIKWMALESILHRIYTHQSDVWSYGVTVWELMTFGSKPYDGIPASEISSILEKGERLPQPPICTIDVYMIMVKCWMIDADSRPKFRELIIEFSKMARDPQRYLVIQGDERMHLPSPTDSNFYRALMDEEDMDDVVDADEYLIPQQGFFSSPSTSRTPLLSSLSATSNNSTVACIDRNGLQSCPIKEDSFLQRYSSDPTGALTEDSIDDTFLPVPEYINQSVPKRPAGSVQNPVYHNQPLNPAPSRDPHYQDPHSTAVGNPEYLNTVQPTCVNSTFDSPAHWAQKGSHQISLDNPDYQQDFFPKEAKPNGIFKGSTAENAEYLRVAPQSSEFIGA
# Method in brief: as §1
# [6] = ATP at Km, read-out: IC50 Del19/T790M/C797S (nM), Km ATP
# [7] = IC50 Del19/T790M/C797S (nM), 100 μM ATP
# [8] = IC50 L858R/T790M/C797S (nM), 100 μM ATP
# [9] = ATP at Km, read-out: IC50 Del19/C797S (nM), Km ATP
# [10] = IC50 Del19/C797S (nM), 100 μM ATP
# [11] = ATP at Km, read-out: IC50 L858R/C797S (nM), Km ATP
# [12] = IC50 L858R/C797S (nM), 100 μM ATP
# [13] = ATP at Km, read-out: IC50 WT (nM), Km ATP
# [14] = ATP at Km, read-out: IC50 L858R/T790M/C797S (nM), Km ATP
# [15] = Km ATP, read-out: IC50 Del19/T790M/C797S (nM), Km ATP
# [16] = Km ATP, read-out: IC50 L858R/T790M/C797S (nM), Km ATP
# EGFR Del19/T790M/C797S, sequence (P00533 with tags, fused parts or gaps DEL746-750/T790M/C797S): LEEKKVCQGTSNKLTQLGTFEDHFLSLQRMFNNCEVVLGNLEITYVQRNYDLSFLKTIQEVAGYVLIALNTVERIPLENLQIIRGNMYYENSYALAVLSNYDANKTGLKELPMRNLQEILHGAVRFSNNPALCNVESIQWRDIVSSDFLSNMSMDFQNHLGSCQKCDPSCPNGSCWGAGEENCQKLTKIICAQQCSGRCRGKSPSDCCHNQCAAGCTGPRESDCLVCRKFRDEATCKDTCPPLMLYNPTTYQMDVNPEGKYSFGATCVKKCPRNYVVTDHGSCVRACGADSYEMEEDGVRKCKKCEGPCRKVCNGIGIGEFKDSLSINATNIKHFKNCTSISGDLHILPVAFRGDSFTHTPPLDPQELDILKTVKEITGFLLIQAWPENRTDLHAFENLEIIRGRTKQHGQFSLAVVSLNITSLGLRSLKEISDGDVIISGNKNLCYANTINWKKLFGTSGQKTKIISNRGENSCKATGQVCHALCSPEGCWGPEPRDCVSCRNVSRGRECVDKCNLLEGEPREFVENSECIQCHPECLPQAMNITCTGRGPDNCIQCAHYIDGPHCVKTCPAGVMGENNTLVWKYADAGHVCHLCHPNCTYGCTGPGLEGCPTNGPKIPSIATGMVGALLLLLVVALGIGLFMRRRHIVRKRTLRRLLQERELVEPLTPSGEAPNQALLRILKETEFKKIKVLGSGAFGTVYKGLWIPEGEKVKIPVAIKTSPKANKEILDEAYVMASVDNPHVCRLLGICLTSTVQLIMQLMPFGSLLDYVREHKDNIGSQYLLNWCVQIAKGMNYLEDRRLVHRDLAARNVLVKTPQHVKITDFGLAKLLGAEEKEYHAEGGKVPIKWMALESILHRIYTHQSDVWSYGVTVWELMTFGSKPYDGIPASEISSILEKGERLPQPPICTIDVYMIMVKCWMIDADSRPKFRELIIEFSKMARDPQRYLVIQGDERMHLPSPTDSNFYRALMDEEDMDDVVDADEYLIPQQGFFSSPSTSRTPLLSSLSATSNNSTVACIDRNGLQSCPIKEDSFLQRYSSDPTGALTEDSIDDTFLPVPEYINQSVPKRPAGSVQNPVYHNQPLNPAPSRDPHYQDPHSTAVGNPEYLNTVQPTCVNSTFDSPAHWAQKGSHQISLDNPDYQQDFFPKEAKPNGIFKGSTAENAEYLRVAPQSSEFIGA
Compound,"IC50 [1, 6] [nM]","IC50 [1, 7] [nM]","IC50 [2, 8] [nM]","IC50 [3, 9] [nM]","IC50 [3, 10] [nM]","IC50 [4, 11] [nM]","IC50 [4, 12] [nM]","IC50 [5, 13] [nM]","IC50 ([5]; IC50 WT (nM), 100 μM ATP) [nM]","IC50 [2, 14] [nM]","IC50 ([1]; Km ATP, read-out: IC50 Del19/T790M/C797S (nM) Km ATP) [nM]","IC50 ([2]; Km ATP, read-out: IC50 L858R/T790M/C797S (nM) Km ATP) [nM]","IC50 ([3]; Km ATP, read-out: IC50 Del19/C797S (nM) Km ATP) [nM]","IC50 ([4]; Km ATP, read-out: IC50 L858R/C797S (nM) Km ATP) [nM]","IC50 ([5]; Km ATP, read-out: IC50 WT (nM) Km ATP) [nM]","IC50 [1, 15] [nM]","IC50 [2, 16] [nM]","IC50 ([3]; Km ATP, read-out: IC50 Del19/C797S (nM), Km ATP) [nM]","IC50 ([4]; Km ATP, read-out: IC50 L858R/C797S (nM), Km ATP) [nM]","IC50 ([5]; Km ATP, read-out: IC50 WT (nM), Km ATP) [nM]"
"CC1(CO)CCN(c2cc(Nc3ccnc(-c4cnn(S(=O)(=O)C5CC5)c4)n3)ncc2C#CC2CC2)CC1 [Example 250, (1-(5-(Cyclopropylethynyl)-2-((2-(1-(cyclopropylsulfonyl)-1H-pyrazol-4-yl)pyrimidin-4-yl)amino)pyridin-4-yl)-4-methylpiperidin-4-yl)methanol]",0.7,0.7,0.9,2,2.8,6.6,74.7,15,> 10000,0.4,–,–,–,–,–,–,–,–,–,–
"Cn1cc(C#Cc2cnc(Nc3ccnc(-c4cnn(S(=O)(=O)C5CC5)c4)n3)cc2N2CC[C@@H](O)C2)cn1 [Example 31, (R)-1-(2-((2-(1-(Cyclopropylsulfonyl)-1H-pyrazol-4-yl)pyrimidin-4-yl)amino)-5-((1-methyl-1H-pyrazol-4-yl)ethynyl)pyridin-4-yl)pyrrolidin-3-ol]",–,0.7,1.4,–,6.5,–,52.3,–,> 10000,–,–,–,–,–,–,–,–,–,–,–
"COC1CCN(c2cc(Nc3ccnc(-c4cnn(S(=O)(=O)C5CC5)c4)n3)ncc2C#Cc2cnn(C)c2)CC1 [Example 15, 2-(1-(Cyclopropylsulfonyl)-1H-pyrazol-4-yl)-N-(4-(4-methoxypiperidin-1-yl)-5-((1-methyl-1H-pyrazol-4-yl)ethynyl)pyridin-2-yl)pyrimidin-4-amine]",–,2.6,1.6,–,6.4,–,25.5,–,661,–,–,–,–,–,–,–,–,–,–,–
"O=S(=O)(C1CC1)n1cc(-c2nccc(Nc3cc(N[C@H]4CC[C@@H](CO)CC4)c(C#Cc4cnn(C(F)F)c4)cn3)n2)cn1 [Example 308, ((1s,4s)-4-((2-((2-(1-(Cyclopropylsulfonyl)-1H-pyrazol-4-yl)pyrimidin-4-yl)amino)-5-((1-(difluoromethyl)-1H-pyrazol-4-yl)ethynyl)pyridin-4-yl)amino)cyclohexyl)methanol]",4.8,3.5,2.3,1.6,2.8,3.7,75,39.4,> 10000,3.2,–,–,–,–,–,–,–,–,–,–
"O=C(c1ccc(C#Cc2cnc(Nc3ccnc(-c4cnn(S(=O)(=O)C5CC5)c4)n3)cc2N2CCC[C@@H](O)C2)cc1)N1CCC(O)CC1 [Example 444, (R)-(4-((6-((2-(1-(Cyclopropylsulfonyl)-1H-pyrazol-4-yl)pyrimidin-4-yl)amino)-4-(3-hydroxypiperidin-1-yl)pyridin-3-yl)ethynyl)phenyl)(4-hydroxypiperidin-1-yl)methanone]",–,1.5,1.5,–,10.2,–,549,–,> 10000,–,–,–,–,–,–,0.9,0.3,–,–,–
"O=S(=O)(C1CC1)n1cc(-c2nccc(Nc3cc(NC4CCC(CO)CC4)c(C#CC4CCCO4)cn3)n2)cn1 (stereo not drawn) [Example 374, ((1s,4s)-4-((2-((2-(1-(Cyclopropylsulfonyl)-1H-pyrazol-4-yl)pyrimidin-4-yl)amino)-5-((tetrahydrofuran-2-yl)ethynyl)pyridin-4-yl)amino)cyclohexyl)methanol]",–,0.3,0.6,–,2.4,–,75.1,–,9810,–,–,–,–,–,–,0.3,0.3,1.3,4.1,10.4

# Further compounds by falling IC50 [1, 7], results first:
"IC50 [1, 6] [nM]","IC50 [1, 7] [nM]","IC50 [2, 8] [nM]","IC50 [3, 9] [nM]","IC50 [3, 10] [nM]","IC50 [4, 11] [nM]","IC50 [4, 12] [nM]","IC50 [5, 13] [nM]","IC50 ([5]; IC50 WT (nM), 100 μM ATP) [nM]","IC50 [2, 14] [nM]","IC50 ([1]; Km ATP, read-out: IC50 Del19/T790M/C797S (nM) Km ATP) [nM]","IC50 ([2]; Km ATP, read-out: IC50 L858R/T790M/C797S (nM) Km ATP) [nM]","IC50 ([3]; Km ATP, read-out: IC50 Del19/C797S (nM) Km ATP) [nM]","IC50 ([4]; Km ATP, read-out: IC50 L858R/C797S (nM) Km ATP) [nM]","IC50 ([5]; Km ATP, read-out: IC50 WT (nM) Km ATP) [nM]","IC50 [1, 15] [nM]","IC50 [2, 16] [nM]","IC50 ([3]; Km ATP, read-out: IC50 Del19/C797S (nM), Km ATP) [nM]","IC50 ([4]; Km ATP, read-out: IC50 L858R/C797S (nM), Km ATP) [nM]","IC50 ([5]; Km ATP, read-out: IC50 WT (nM), Km ATP) [nM]",Compound
2,9.5,3,3.1,7.9,1.9,11.2,16.2,> 10000,–,–,–,–,–,–,–,–,–,–,–,"O=S(=O)(C1CC1)n1cc(-c2nccc(Nc3cc(N4CCC5(CCO5)CC4)c(C#Cc4cccnc4)cn3)n2)cn1 [Example 283, 2-(1-(Cyclopropylsulfonyl)-1H-pyrazol-4-yl)-N-(5-(pyridin-3-ylethynyl)-4-(1-oxa-7-azaspiro[3.5]nonan-7-yl)pyridin-2-yl)pyrimidin-4-amine]"
–,1.8,2.3,–,2.7,–,28.1,–,8000,–,–,–,–,–,–,–,–,–,–,–,"Cn1cc(C#Cc2cnc(Nc3ccnc(-c4cnn(S(=O)(=O)C5CC5)c4)n3)cc2N2CCC(CO)CC2)cn1 [Example 29, (1-(2-((2-(1-(Cyclopropylsulfonyl)-1H-pyrazol-4-yl)pyrimidin-4-yl)amino)-5-((1-methyl-1H-pyrazol-4-yl)ethynyl)pyridin-4-yl)piperidin-4-yl)methanol]"
–,1.8,26.1,–,37.7,–,286,–,> 10000,–,–,–,–,–,–,–,–,–,–,–,"Cn1cnc(C#Cc2cnc(Nc3ccnc(-c4cnn(S(=O)(=O)C5CC5)c4)n3)cc2NCC(C)(C)CO)c1 [Example 224, 3-((2-((2-(1-(Cyclopropylsulfonyl)-1H-pyrazol-4-yl)pyrimidin-4-yl)amino)-5-((1-methyl-1H-imidazol-4-yl)ethynyl)pyridin-4-yl)amino)-2,2-dimethylpropan-1-ol]"
0.4,1.4,4.3,6,12,6.4,145,44.4,6720,0.3,–,–,–,–,–,–,–,–,–,–,"Cn1cc(C#Cc2cnc(Nc3ccnc(-c4cnn(S(=O)(=O)C5CC5)c4)n3)cc2N2CCC3(CCNCC3)C2)cn1 [Example 154, 2-(1-(Cyclopropylsulfonyl)-1H-pyrazol-4-yl)-N-(5-((1-methyl-1H-pyrazol-4-yl)ethynyl)-4-(2,8-diazaspiro[4.5]decan-2-yl)pyridin-2-yl)pyrimidin-4-amine]"
–,1.1,12.6,–,38.6,–,103,–,> 10000,–,–,–,–,–,–,–,–,–,–,–,"C[C@H](CCO)Nc1cc(Nc2ccnc(-c3cnn(S(=O)(=O)C4CC4)c3)n2)ncc1C#Cc1cnn(C)c1 [Example 4, (R)-3-((2-((2-(1-(Cyclopropylsulfonyl)-1H-pyrazol-4-yl)pyrimidin-4-yl)amino)-5-((1-methyl-1H-pyrazol-4-yl)ethynyl)pyridin-4-yl)amino)butan-1-ol]"
–,0.6,0.8,–,2.8,–,10,–,> 10000,–,0.5,0.2,1.3,1.5,23.8,–,–,–,–,–,"Cn1cc(C#Cc2cnc(Nc3ccnc(-c4cnn(S(=O)(=O)C5CC5)c4)n3)cc2N[C@H]2CC[C@@H](O)CC2)cn1 [Example 41, (1s, 4s)-4-((2-((2-(1-(Cyclopropylsulfonyl)-1H-pyrazol-4-yl)pyrimidin-4-yl)amino)-5-((1-methyl-1H-pyrazol-4-yl)ethynyl)pyridin-4-yl)amino)cyclohexan-1-ol]"
–,0.1,0.3,–,1.6,–,8.9,–,3190,–,–,–,–,–,–,–,–,–,–,–,"CC(O)CC#Cc1cnc(Nc2ccnc(-c3cnn(S(=O)(=O)C4CC4)c3)n2)cc1N1CCC(C)(CO)CC1 (stereo not drawn) [Example 287, 5-(6-((2-(1-(Cyclopropylsulfonyl)-1H-pyrazol-4-yl)pyrimidin-4-yl)amino)-4-(4-(hydroxymethyl)-4-methylpiperidin-1-yl)pyridin-3-yl)pent-4-yn-2-ol]"
